Legend:
[1] = tested on: KG-1 cells (human acute myeloid leukemia cells); assay: ATX-S10•Na(II) uptake into KG-1 cells; assay type: cell-based; details: for ATX-S10•Na(II) uptake: KG-1
Method: (§1) After labeling the compound represented by formula (II) above (hereinafter referred to as “ATX-S10•Na(II)”) with ^14C, the ATX-S10•Na(II) was dissolved in saline at a concentration of approximately 1×10^−3 mol/L, and the solution was filtered and sterilized with a 0.22 μm filter and then diluted with 1% FBS (fetal bovine serum)-containing RPMI1640 medium to prepare a 5×10^−5 mol/L ATX-S10•Na(II)-added solution.
(§2) As malignant lymphoma cells and leukemia cells, there were used THP-1 cells (human monocytic leukemia cells), EoL-1 cells (human eosinophilic leukemia cells), A3/KAW cells (human malignant lymphoma cells) and KG-1 cells (human acute myeloid leukemia cells). All of the cells were cultured using 10% FBS-containing RPMI1640 medium, with subculturing 1 to 2 times per week during the culturing. The THP-1 cells and EoL-1 cells were obtained from RIKEN BioResource Center, and the A3/KAW cells and KG-1 cells were obtained from Japan Health Sciences Foundation.
(§3) After adding 400 μL of the cell suspension and 100 μL of the ATX-S10•Na(II)-added solution to each well of a 48-well microplate and mixing, the mixtures were incubated with a CO2 incubator (37° C., 5% CO2) or allowed to stand in a refrigerating chamber (approximately 4° C.). The cells were separated immediately after addition (0 hours after addition) and 1 hour, 3 hours, 20 hours and 44 hours after addition, and ATX-S10•Na(II) uptake into the cells (including cell surface binding) was measured. The uptake with standing at 4° C. corresponds to cell surface binding, and the value of the uptake with incubation at 37° C. minus the uptake with standing at 4° C. is presumed to correspond to the substantial ATX-S 10 Na(II) uptake for each type of cell.
(§4) The cell separation and uptake measurement were performed in the following manner. Specifically, 1 mL of 1.5% BSA (bovine serum albumin)-containing PBS solution (ice-cold) was placed in a 1.5 mL tube. The suspension of cells to be separated was gently pipetted and mixed, and a 100 μL portion was taken and superposed onto the 1.5% BSA-containing PBS solution. For each well, the cell suspension (300 μL) was dispensed into three tubes (n=3). After centrifugation (3200 rpm, 10 minutes, 4° C.), the medium and 1.5% BSA-containing PBS solution were removed by suction, and then the precipitate was suspended in 100 μL of PBS(−), and 1 mL of PBS(−) was further added and mixed therewith. After additional centrifugation (3000 rpm, 10 minutes, 4° C.), the supernatant was removed by suction, and the bottom of the tube, where the precipitate is present, was cut out and transferred to a counting vial. Then 4.5 mL of liquid scintillator was added and mixed therewith, and the radioactivity was measured for 5 minutes using a liquid scintillation counter. The measured radioactivity was used to calculate the ATX-S10•Na(II) uptake (pmol/10^5 cells) into the cells.

[2] = tested on: EoL-1 cells (human eosinophilic leukemia cells); assay: ATX-S10•Na(II) uptake into EoL-1 cells; assay type: cell-based; details: for ATX-S10•Na(II) uptake: EoL-1
Method: as §1, §2, §3, §4

[3] = tested on: THP-1 cells (activated macrophages) stimulated with PMA; assay: ATX-S10•Na(II) uptake into THP-1 cells stimulated with PMA; assay type: cell-based, human
Method: as §1, §2, §3, §4
Uptake into THP-1 cells was measured also with stimulation of the cells for approximately 24 hours with PMA (2 nmol/L, 5 nmol/L or 15 nmol/L) and addition of ATX-S10•Na(II) to the cell suspension immediately after removal of the PMA. THP-1 cells differentiate into macrophages upon stimulation with PMA.

[4] = tested on: erythrocytes; assay: ATX-S10•Na(II) uptake into erythrocytes; assay type: cell-based, human
Method: as §1
(§5) Erythrocytes, platelets, neutrophils and lymphocytes were prepared from blood sampled from three healthy persons (designated as A, B and C).
The erythrocytes, neutrophils and lymphocytes were prepared from heparinized blood. […]
as §3, with “The uptake with standing at 4° C. corresponds to cell surface binding, and the value of the uptake with incubation at 37° C. minus the uptake with standing at 4° C. is presumed to correspond to the substantial ATX-S 10 Na(II) uptake for each type of cell.” left out
(§6) The cell separation and uptake measurement were performed in the following manner. […] Then 4.5 mL of liquid scintillator was added and mixed therewith, and the radioactivity was measured for 5 minutes using a liquid scintillation counter. […]

[5] = tested on: A3/KAW cells (human malignant lymphoma cells); assay: ATX-S10•Na(II) uptake into A3/KAW cells; assay type: cell-based; details: for ATX-S10•Na(II) uptake: A3/KAW
Method: as §1, §2, §3, §4

[6] = tested on: platelets; assay: ATX-S10•Na(II) uptake into platelets; assay type: cell-based, human
Method: as §1, §5
The platelets were prepared from citric acid-treated blood. […]
as §3, with “The uptake with standing at 4° C. corresponds to cell surface binding, and the value of the uptake with incubation at 37° C. minus the uptake with standing at 4° C. is presumed to correspond to the substantial ATX-S 10 Na(II) uptake for each type of cell.” left out
as §6

[7] = 0 hr, immediately after addition

With `C=Cc1c(C)c2cc3nc(cc4[nH]c(cc5nc(cc1[nH]2)C(C)=C5CCC(=O)NC(CC(=O)[O-])C(=O)[O-])c(CCC(=O)NC(CC(=O)[O-])C(=O)[O-])c4C)C(C)(O)/C3=C\C=NO.[Na+].[Na+].[Na+].[Na+]` (centres unmarked) [ATX-S10•Na(II)] the “ATX-S10•Na(II) uptake” value [1, 7] was 0.40 pmol/10^5 cells, the “ATX-S10•Na(II) uptake” value ([1]; 1 hr, incubation at 37° C.) was 2.34 pmol/10^5 cells and the “ATX-S10•Na(II) uptake” value ([1]; 1 hr, standing at 4° C.) was 1.36 pmol/10^5 cells. For the same compound, the “ATX-S10•Na(II) uptake” value ([1]; 3 hr, incubation at 37° C.) was 2.59 pmol/10^5 cells, the “ATX-S10•Na(II) uptake” value ([1]; 3 hr, standing at 4° C.) was 1.50 pmol/10^5 cells and the “ATX-S10•Na(II) uptake” value ([1]; 20 hr, incubation at 37° C.) was 6.85 pmol/10^5 cells. The “ATX-S10•Na(II) uptake” value ([1]; 20 hr, standing at 4° C.) was 2.87 pmol/10^5 cells, the “ATX-S10•Na(II) uptake” value ([1]; 44 hr, incubation at 37° C.) was 10.97 pmol/10^5 cells and the “ATX-S10•Na(II) uptake” value ([1]; 44 hr, standing at 4° C.) was 0.96 pmol/10^5 cells. The “substantial uptake of ATX-S10•Na(II) (uptake at 37° C. minus uptake at 4° C.)” value ([1]; KG-1 cells, course over incubation time) was “increased with incubation time”, the “ATX-S10•Na(II) uptake” value [2, 7] was 0.32 pmol/10^5 cells and the “ATX-S10•Na(II) uptake” value ([2]; 1 hr, incubation at 37° C.) was 0.25 pmol/10^5 cells. For the same compound, the “ATX-S10•Na(II) uptake” value ([2]; 1 hr, standing at 4° C.) was 0.30 pmol/10^5 cells, the “ATX-S10•Na(II) uptake” value ([2]; 3 hr, incubation at 37° C.) was 0.48 pmol/10^5 cells and the “ATX-S10•Na(II) uptake” value ([2]; 3 hr, standing at 4° C.) was 0.32 pmol/10^5 cells. For the same compound, the “ATX-S10•Na(II) uptake” value ([2]; 20 hr, incubation at 37° C.) was 1.59 pmol/10^5 cells, the “ATX-S10•Na(II) uptake” value ([2]; 20 hr, standing at 4° C.) was 0.36 pmol/10^5 cells and the “ATX-S10•Na(II) uptake” value ([2]; 44 hr, incubation at 37° C.) was 3.09 pmol/10^5 cells. The “ATX-S10•Na(II) uptake” value ([2]; 44 hr, standing at 4° C.) was 0.37 pmol/10^5 cells, the “uptake compared between cell types” value ([2]; EoL-1 cells versus THP-1, A3/KAW and KG-1 cells) was “fairly low value” and the “substantial uptake of ATX-S10•Na(II) (uptake at 37° C. minus uptake at 4° C.)” value ([2]; EoL-1 cells, course over incubation time) was “increased with incubation time”. The “uptake compared with unstimulated cells” value ([3]; THP-1 cells (activated macrophages) stimulated with PMA for 24 hours) was “higher than without stimulation with PMA”, the “ATX-S10•Na(II) uptake” value ([3]; THP-1 stimulated with 2 nmol/L PMA, 0 hr, immediately after addition) was 1.66 pmol/10^5 cells and the “ATX-S10•Na(II) uptake” value ([3]; THP-1 stimulated with 2 nmol/L PMA, 3 hr, incubation at 37° C.) was 6.66 pmol/10^5 cells. For the same compound, the “ATX-S10•Na(II) uptake” value ([3]; THP-1 stimulated with 2 nmol/L PMA, 3 hr, standing at 4° C.) was 7.05 pmol/10^5 cells, the “ATX-S10•Na(II) uptake” value ([3]; THP-1 stimulated with 2 nmol/L PMA, 20 hr, incubation at 37° C.) was 11.75 pmol/10^5 cells and the “ATX-S10•Na(II) uptake” value ([3]; THP-1 stimulated with 2 nmol/L PMA, 20 hr, standing at 4° C.) was 5.32 pmol/10^5 cells. The “ATX-S10•Na(II) uptake” value ([3]; THP-1 stimulated with 5 nmol/L PMA, 0 hr, immediately after addition) was 2.07 pmol/10^5 cells, the “ATX-S10•Na(II) uptake” value ([3]; THP-1 stimulated with 5 nmol/L PMA, 3 hr, incubation at 37° C.) was 11.37 pmol/10^5 cells and the “ATX-S10•Na(II) uptake” value ([3]; THP-1 stimulated with 5 nmol/L PMA, 3 hr, standing at 4° C.) was 8.48 pmol/10^5 cells. For the same compound, the “ATX-S10•Na(II) uptake” value ([3]; THP-1 stimulated with 5 nmol/L PMA, 20 hr, incubation at 37° C.) was 16.06 pmol/10^5 cells, the “ATX-S10•Na(II) uptake” value ([3]; THP-1 stimulated with 5 nmol/L PMA, 20 hr, standing at 4° C.) was 7.53 pmol/10^5 cells and the “ATX-S10•Na(II) uptake” value ([3]; THP-1 stimulated with 15 nmol/L PMA, 0 hr, immediately after addition) was 2.93 pmol/10^5 cells. The “ATX-S10•Na(II) uptake” value ([3]; THP-1 stimulated with 15 nmol/L PMA, 3 hr, incubation at 37° C.) was 18.31 pmol/10^5 cells, the “ATX-S10•Na(II) uptake” value ([3]; THP-1 stimulated with 15 nmol/L PMA, 3 hr, standing at 4° C.) was 12.74 pmol/10^5 cells and the “ATX-S10•Na(II) uptake” value ([3]; THP-1 stimulated with 15 nmol/L PMA, 20 hr, incubation at 37° C.) was 19.95 pmol/10^5 cells. The “ATX-S10•Na(II) uptake” value ([3]; THP-1 stimulated with 15 nmol/L PMA, 20 hr, standing at 4° C.) was 9.13 pmol/10^5 cells, the “ATX-S10•Na(II) uptake” value [4] was “Almost no ATX-S10•Na(II) was taken up” and the “substantial uptake of ATX-S10•Na(II) (uptake at 37° C. minus uptake at 4° C.)” value ([5]; A3/KAW cells, course over incubation time) was “increased with incubation time”. The “ATX-S10•Na(II) uptake” value [5, 7] was 0.72 pmol/10^5 cells, the “ATX-S10•Na(II) uptake” value ([5]; 1 hr, incubation at 37° C.) was 2.38 pmol/10^5 cells and the “ATX-S10•Na(II) uptake” value ([5]; 1 hr, standing at 4° C.) was 1.16 pmol/10^5 cells. The “ATX-S10•Na(II) uptake” value ([5]; 3 hr, incubation at 37° C.) was 3.79 pmol/10^5 cells, the “ATX-S10•Na(II) uptake” value ([5]; 3 hr, standing at 4° C.) was 1.06 pmol/10^5 cells and the “ATX-S10•Na(II) uptake” value ([5]; 20 hr, incubation at 37° C.) was 10.06 pmol/10^5 cells. The “ATX-S10•Na(II) uptake” value ([5]; 20 hr, standing at 4° C.) was 1.44 pmol/10^5 cells, the “ATX-S10•Na(II) uptake” value ([5]; 44 hr, incubation at 37° C.) was 27.64 pmol/10^5 cells and the “ATX-S10•Na(II) uptake” value ([5]; 44 hr, standing at 4° C.) was 5.07 pmol/10^5 cells. The Aggregation of platelets ([6]; after incubation at 37° C. for 44 hours) was “Aggregation of platelets was observed” and the “ATX-S10•Na(II) uptake” value ([6]; platelets) was “Almost no ATX-S10•Na(II) was taken up”.

Source: patent publication US20090280549A1, “Method for Treating Body Fluid” (priority 2005, published 2009)
